Tests used:
[1] = tested on: HepG2 hepatocellular carcinoma cells; assay: Time-lapse microscopy count of multi-daughter divisions (DNV frequency), HepG2; assay type: cell-based, human; conditions: wogonin 50 μM, 5-FU 20 μM
Method: To investigate DNVs, the human HepG2 hepatocellular carcinoma, HeLa cervical adenocarcinoma, and A549 lung adenocarcinoma cell lines, as well as the non-cancerous RPE1 line of hTRET-immortalized retina epithelial cells, were obtained from the American Type Culture Collection (ATCC, Manassas, Va., USA) and cultivated in Dulbecco's Modified Eagle Medium (DMEM) supplemented with 10% fetal bovine serum (Gemini Bio-Products, Sacramento. Calif.) under a humidified atmosphere of 5% C02 at 37° C. After 24 hours, the old medium was replaced by acidic DMEM growth medium buffered by 15 mM 2-(N-morpholino)-ethanesulfonic acid.HCl (MES) at pH 6.4, neutral DMEM growth medium buffered by 15 mM 3-(N-morpholino)propanesulfonic acid.HCl (MOPS) at pH 7.4, alkaline growth medium buffered by 15 mM tris(hydroxymethyl)aminomethane.HCl (Tris) at pH 8.4, or neutral DMEM growth medium containing wogonin (50 μM) or 5-FU (20 μM). Using phase contrast microscopy, time-lapse photographs were recorded at different positions of the wells at 15-minute intervals for 24 hours using the Nikon ECLIPSE Ti Live Cell Imaging Observatory, enabling the count of P1 through P8 patterns at the end of Stage 2 of the DNV process (FIG. 1). All the images were photographed at 100× magnification. Altemately, using fluorescence microscopy, the cells were seeded into 12 well plates at 1×10^3 per well and stained with Hoechst 33342 ([…], Thermofisher) for 30 minutes in an incubator at 37° C. After 30 minutes, culture medium was replaced by various treatment media and placed under the Nikon ECLIPSE Ti Live Cell Imaging Observatory for 24 hours. For the HeLa, HepG2 and A549 cells, the various treatments were also extended to 5 days. Because the RPE1 cells yielded no DNVs after 24 hours of drug treatment, its treatment periods were not extended beyond 24 hours. All the cells were manually traced and quantified using the ImageJ software. DNV frequencies were estimated by dividing the total number of multi-daughter ([…]) divisions by the total number of cell divisions. Fluorescence staining and time-lapse microscopy were employed to differentiate between the bi-, tri-, tetra- and penta-daughter cell divisions, and to estimate the percentages of the P1 through P8 patterns in the final daughter cells generated by each of the DNV events. GraphPad Prism 5.0 software was employed for statistical analysis, and the results were presented as the mean. Significance was determined using the Student t-test (two-tailed, unpaired/unequal variances).

[2] = tested on: HepG2 cells; assay: Daughter-cell subgroups P1 through P8 in mitoses with DNV, HepG2; assay type: cell-based, human; conditions: HepG2, 24 hours, wogonin 50 μM, 5-FU 20 μM
Description: “Daughter Number Variation” is a process that occurs during mitosis, where more than two daughter cells are produced per mitotic division. It is a two-stage process, wherein cell divisions of mono-nucleate, bi-nucleate, tri-nucleate and tetra-nucleate mother cells at Stage 1 produce subgroups of single mono-nucleate cells (herein referred to as P1), and subgroups containing one bi-nucleate cell and two mono-nucleate cells (herein referred to as P2). Stage 1 is followed by Stage 2, during which time some of the daughter cells from Stage 1 fuse to produce multi-nucleate cell subgroups, where the different subgroups differ with respect to the number of constituent cells and their nucleate status (herein referred to as P3 through P8). All the subgroups from a single DNV mitosis stay close to one another to form a distinct cluster when the cell culture is not overly dense with cells.
P1 subgroup cells are daughter mono-nucleate cells resulting from mitoses with DNV that have not undergone any post-mitotic cell fusion. P2 subgroup daughter cells are clusters of one bi-nucleate cell and two mono-nucleate cells, which also have not undergone any post-mitotic cell fusion during DNV, whereas each of the multi-nucleated subgroups contains at least one cell that is generated from post-mitotic fusions between the Stage 1 cells. P3 through P8 are daughter cell subgroups, which result from cell fusions during DNV, and wherein each subgroup includes at least one multinucleate cell.
By way of example and not of limitation, there is at least one multinucleate cell with two nuclei in P3 and P5, one multinucleate cell with three nuclei in P4 and P6, one multinucleate cell with four nuclei in P7, and one multinucleate cell with five nuclei in P8, sharing the same cytoplasm. More specifically, P3 cell subgroups are clusters of one multinucleate cell with two nuclei and one mononucleate cell, P4 cell subgroups are one multinucleate cell with three nuclei, P5 cell subgroups are clusters of either two multinucleate cells with two nuclei or one multinucleate cell with two nuclei and one binucleate cell, P6 cell subgroups are clusters of one multinucleate cell with three nuclei and one mononucleate cell, P7 cell subgroups are one multinucleate cell with four nuclei, and P8 cell subgroups are one multinucleate cell with five nuclei. P1 through P8 cell subgroups are depicted in detail in FIG. 2.
The counts of P1 and P2 subgroups of cancer cells are then used to obtain their proportions based on the total number of cell subgroups P1 through P8 that resulted from mitotic DNVs during the predetermined period of time. The proportions are typically expressed as percentages. The proportion of P1 subgroup of cells is calculated as (number of P1 subgroups)+(total number of daughter cell subgroups)×100%, and the proportion of (P1 and P2) subgroup is calculated as (number of P1 subgroups+number of P2 subgroups)+(total number of daughter cell subgroups)×100%. This can also be expressed as (number of P1 subgroups)+(total number of P1 through P8 subgroups)×100%, or (number of P1 subgroups+number of P2 subgroups)+(total number of P1 through P8 subgroups)×100%, respectively.
To investigate DNVs, the human HepG2 hepatocellular carcinoma, HeLa cervical adenocarcinoma, and A549 lung adenocarcinoma cell lines, as well as the non-cancerous RPE1 line of hTRET-immortalized retina epithelial cells, were obtained from the American Type Culture Collection (ATCC, Manassas, Va., USA) and cultivated in Dulbecco's Modified Eagle Medium (DMEM) supplemented with 10% fetal bovine serum (Gemini Bio-Products, Sacramento. Calif.) under a humidified atmosphere of 5% C02 at 37° C. […]

For O=c1[nH]cc(F)c(=O)[nH]1 [5-FU, 5-flurouracil], the “Bi-daughter divisions, % of total divisions” value (“Bi-daughter divisions, %” for short) ([1]; HepG2, 24 hours) was 99.1%, the “Bi-daughter divisions, number” value ([1]; HepG2, 24 hours) was 1995 and the “Sum of Multi daughter Divisions, % of total mitotic divisions” value ([1]; HepG2, 24 hours) was 0.94%. For the same compound, the “Sum of Multi daughter Divisions, number” value ([1]; HepG2, 24 hours) was 19, the “Tetra-daughter divisions, % of total divisions” value ([1]; HepG2, 24 hours) was 0.25% and the “Tetra-daughter divisions, number” value ([1]; HepG2, 24 hours) was 5. The “Total number of observed divisions” value ([1]; HepG2, 24 hours) was 2014 (100), the “Tri-daughter divisions, % of total divisions” value (shortened to “Tri-daughter divisions, %”) ([1]; HepG2, 24 hours) was 0.69% and the “Tri-daughter divisions, number” value ([1]; HepG2, 24 hours) was 14. For the same compound, the “≥Tetra-daughter divisions, number” value ([1]; HepG2, 24 hours) was 0, the “Bi-daughter divisions, %” value ([1]; HepG2, 5 days) was 90.6% and the “Bi-daughter divisions, number” value ([1]; HepG2, 5 days) was 270. The “Sum of Multi-daughter Divisions, % of total mitotic divisions” value ([1]; HepG2, 5 days) was 9.30%, the “Sum of Multi-daughter Divisions, number” value ([1]; HepG2, 5 days) was 28 and the “Tetra-daughter divisions, % of total divisions” value ([1]; HepG2, 5 days) was 2.6%. For the same compound, the “Tetra-daughter divisions, number” value ([1]; HepG2, 5 days) was 8, the “Total Divisions” value ([1]; HepG2, 5 days) was 298 (100) and the “Tri-daughter divisions, %” value ([1]; HepG2, 5 days) was 5.7%. The “Tri-daughter divisions, number” value ([1]; HepG2, 5 days) was 17, the “≥Tetra-daughter divisions, % of total divisions” value (“≥Tetra-daughter divisions, %” for short) ([1]; HepG2, 5 days) was 1.0% and the “≥Tetra-daughter divisions, number” value ([1]; HepG2, 5 days) was 3. The “Mitoses with DNV, number” value [2] was 17, the “P1 + P2 subgroups, number” value [2] was 6 and the “P1 subgroups, number” value [2] was 3. The “P2 subgroups, % of all P1 through P8 subgroups” value [2] was “(17.6) %”, the “P2 subgroups, number” value [2] was 3 and the “P3 subgroups, % of all P1 through P8 subgroups” value [2] was “(35.2) %”. The “P3 subgroups, number” value [2] was 6, the “P4 subgroups, number” value [2] was 0 and the “P5 subgroups, % of all P1 through P8 subgroups” value [2] was “(11.7) %”. For the same compound, the “P5 subgroups, number” value [2] was 2, the “P6 subgroups, % of all P1 through P8 subgroups” value [2] was “(17.6) %” and the “P6 subgroups, number” value [2] was 3. For the same compound, the “P7 subgroups, number” value [2] was 0 and the “P8 subgroups, number” value [2] was 0.
In the case of COc1c(O)cc(O)c2c(=O)cc(-c3ccccc3)oc12 [Wogonin, wogonin], the “Bi-daughter divisions, %” value ([1]; HepG2, 24 hours) is reported as 97.0%, the “Bi-daughter divisions, number” value ([1]; HepG2, 24 hours) is reported as 2482 and the “Sum of Multi daughter Divisions, % of total mitotic divisions” value ([1]; HepG2, 24 hours) is reported as 2.97%. For the same compound, the “Sum of Multi daughter Divisions, number” value ([1]; HepG2, 24 hours) was 76, the “Tetra-daughter divisions, % of total divisions” value ([1]; HepG2, 24 hours) was 0.70% and the “Tetra-daughter divisions, number” value ([1]; HepG2, 24 hours) was 18. The “Total number of observed divisions” value ([1]; HepG2, 24 hours) was 2558 (100), the “Tri-daughter divisions, %” value ([1]; HepG2, 24 hours) was 2.19% and the “Tri-daughter divisions, number” value ([1]; HepG2, 24 hours) was 56. The “≥Tetra-daughter divisions, %” value ([1]; HepG2, 24 hours) was 0.08%, the “≥Tetra-daughter divisions, number” value ([1]; HepG2, 24 hours) was 2 and the “Bi-daughter divisions, %” value ([1]; HepG2, 5 days) was 83.9%. For the same compound, the “Bi-daughter divisions, number” value ([1]; HepG2, 5 days) was 262, the “Sum of Multi-daughter Divisions, % of total mitotic divisions” value ([1]; HepG2, 5 days) was 16.0% and the “Sum of Multi-daughter Divisions, number” value ([1]; HepG2, 5 days) was 50. The “Tetra-daughter divisions, % of total divisions” value ([1]; HepG2, 5 days) was 3.8%, the “Tetra-daughter divisions, number” value ([1]; HepG2, 5 days) was 12 and the “Total Divisions” value ([1]; HepG2, 5 days) was 312 (100). For the same compound, the “Tri-daughter divisions, %” value ([1]; HepG2, 5 days) was 16.0%, the “Tri-daughter divisions, number” value ([1]; HepG2, 5 days) was 50 and the “≥Tetra-daughter divisions, %” value ([1]; HepG2, 5 days) was 2.5%. The “≥Tetra-daughter divisions, number” value ([1]; HepG2, 5 days) was 8, the “Sum of Multi-daughter Divisions, % of total mitotic divisions” value ([1]; HepG2, 5 days, listed as wogonin) was 18.0% and the “Mitoses with DNV, number” value [2] was 63. For the same compound, the “P1 + P2 subgroups, % of all P1 through P8 subgroups” value [2] was “(60.3) %”, the “P1 + P2 subgroups, number” value [2] was 38 and the “P1 subgroups, % of all P1 through P8 subgroups” value [2] was “(42.8) %”. The “P1 subgroups, number” value [2] was 27, the “P2 subgroups, % of all P1 through P8 subgroups” value [2] was “(17.4) %” and the “P2 subgroups, number” value [2] was 11. For the same compound, the “P3 subgroups, % of all P1 through P8 subgroups” value [2] was “(12.7) %”, the “P3 subgroups, number” value [2] was 8 and the “P4 subgroups, % of all P1 through P8 subgroups” value [2] was “(14.2) %”. The “P4 subgroups, number” value [2] was 9, the “P5 subgroups, % of all P1 through P8 subgroups” value [2] was “(4.7) %” and the “P5 subgroups, number” value [2] was 3. For the same compound, the “P6 subgroups, % of all P1 through P8 subgroups” value [2] was “(4.7) %”, the “P6 subgroups, number” value [2] was 3 and the “P7 subgroups, % of all P1 through P8 subgroups” value [2] was “(3.1) %”. For the same compound, the “P7 subgroups, number” value [2] was 2, the “P8 subgroups, number” value [2] was 0 and the “P1 + P2 subgroups, % of all P1 through P8 subgroups” value ([2]; listed as wogonin) was 60.3%. The “P1 subgroups, % of all P1 through P8 subgroups” value ([2]; listed as wogonin) was 42.8%.

Reference: patent US11952593B2, “Detection and treatment of daughter number variations in cancer cells” (PharmacoGenetics Limited, priority 2020, dated 2024)
